Consider 31 molecules from patent US20230220010A1, “BROAD-SPECTRUM ANTIVIRAL PEPTIDES” (priority 2020, published 2023).

Square brackets hold non-standard residues; d marks the D form. Ends that are not written are not given here. Peptide text beside a SMILES is read from it. Bounds are passed on as bounds.

The test system of series [1] is Lassa pseudovirus (LASVpv). Conditions: for EC50: 72 h.
The next series concerns H3N2 influenza virus. The following applies: for EC50: influenza virus.
The nature of series [2]: Cytotoxicity assay, ALAMARBLUE, HEK cells. In general terms: Alamar Blue is a resazurin reagent that responds to reducing activity.
Series [3] relates to HEK cells. In words: Cytotoxicity assay, ALAMARBLUE, HEK cells. The following applies: HEK cells with or without LASVpv, ALAMARBLUE
Another series relates to HEK 293T/17 cells. Put plainly: Cytotoxicity assay, CELLTITER-GLO, HEK cells. The following applies: for cell viability, HEK 293T/17 cells: peptide concentrations approximately below 4 μM, about 72 hours; for cytotoxicity against HEK cells: CELLTITER-GLO, 3 days. Background: ATP-based viability assays read luminescence as a measure of living cells.
In series [4] the test system is HEK cells. In words: Cytotoxicity with varying cell densities, HEK cells. The following applies: 5×10^3 to 1×10^5 cells/well.
A further series relates to dengue virus type 2. Conditions: read-out: EC50 against dengue virus (DENV); plaque assay.
Series [5] has as its system HEK cells. In words: Cytotoxicity with varying serum (FBS) concentrations, HEK cells.
The test system of another series is Vero E6 cells. In words: Cytotoxicity assay, CELLTITER-GLO, Vero E6 cells. The following applies: peptide concentrations at or below 2 μM, about 72 hours.

As a reminder, the EC50 is the concentration at which the effect is half-maximal.

For the molecule LALLKDGWLLL [Mid], the “antiviral activity against LASVpv” value in series [1] was “no antiviral activity”.
In the series with H3N2 influenza virus, `CC(C)C[C@@H](NC(=O)[C@@H](C)NC(=O)[C@@H](Cc1c[nH]c2ccccc12)NC(=O)CNC(=O)[C@@H](CCCNC(=N)N)NC(=O)[C@H](N)CCCNC(=N)N)C(=O)N[C@H](CCCNC(=N)N)C(=O)N[C@H](CC(C)C)C(=O)N[C@@H](C(=O)N[C@H](CC(C)C)C(=O)N[C@H](C)C(=O)N[C@H](Cc1ccc(O)cc1)C(N)=O)C(C)C` [*arva] (H-[dR][dR]G[dW][dA][dL][dR][dL][dV][dL][dA][dY]-NH2) had an EC50 of 0.4 µM.
On to KLALLKDGWLLLR [Mid-Cat], for which the “antiviral activity against LASVpv” value in series [1] is given as “moderate potency”.
For the molecule RRGFSLKLRLLYRGWGLALRLGYGRR-NH2 [IT1-d], the figures for the EC50 (in [1]; in [2]; with H3N2 influenza virus) were 1.3 µM, over 100 µM and 0.4 µM, respectively.
“RRGWNLRLRLVYGRR-NH2 [*NRRV*, RRGWNLRLRLVYGRR]”: the figures for the concentration giving a half-maximal response (EC50) (in series [2]; in the series with H3N2 influenza virus) were 15 µM and 8 µM, respectively.
Take “RRGWNLALTLTYGRR-NH2 [*NATT*, RRGWNLALTLTYGRR]”: the EC50 in series [1] turned out to be 1.2 µM; in series [2], 43 µM; with H3N2 influenza virus, 0.7 µM. Also, in the series on HEK cells [3], the “cell viability in the presence and absence of virus” value (“cell viability … of virus” below) is reported as “no difference”.
Consider `CC(C)C[C@@H](NC(=O)[C@@H](C)NC(=O)[C@@H](CC(C)C)NC(=O)[C@@H](CCCCN)NC(=O)[C@@H](CC(C)C)NC(=O)[C@@H](CO)NC(=O)[C@@H](Cc1ccccc1)NC(=O)CNC(=O)[C@@H](CCCNC(=N)N)NC(=O)[C@H](N)CCCNC(=N)N)C(=O)N[C@H](CC(C)C)C(=O)N[C@H](CCCCN)C(=O)N[C@H](CC(=O)O)C(=O)NCC(=O)N[C@H](Cc1c[nH]c2ccccc12)C(=O)N[C@H](CC(C)C)C(=O)N[C@H](CC(C)C)C(=O)N[C@H](CC(C)C)C(=O)N[C@H](CCCNC(=N)N)C(=O)N[C@H](CC(C)C)C(=O)NCC(=O)N[C@H](Cc1ccc(O)cc1)C(=O)NCC(=O)N[C@H](CCCNC(=N)N)C(=O)N[C@H](CCCNC(=N)N)C(N)=O` [D-IT1b, rrgfslklallkdgwlllrlgygrr] (H-[dR][dR]G[dF][dS][dL][dK][dL][dA][dL][dL][dK][dD]G[dW][dL][dL][dL][dR][dL]G[dY]G[dR][dR]-NH2), for which, in the series with HEK 293T/17 cells, the “cell viability, HEK 293T/17 cells” value is listed as “high cell viability”.
Consider RRGFSLKLKLLYRGWALALRLGYGRR-NH2 [IT1-e], for which the results for the EC50 (in series [1]; in series [2]; in the series with H3N2 influenza virus) were 1.2 µM, over 50 µM and 0.6 µM, respectively.
Consider “RRGWVLDLVLYYGRR-NH2 [*VDVY*, RRGWVLDLVLYYGRR]”, for which the figures for the EC50 (in series [1]; in [2]; in the series with H3N2 influenza virus) were 5 µM, over 100 µM and 12 µM, respectively.
For the molecule `CC(C)C[C@@H](NC(=O)[C@@H](Cc1c[nH]c2ccccc12)NC(=O)CNC(=O)[C@@H](CCCNC(=N)N)NC(=O)[C@H](N)CCCNC(=N)N)C(=O)N[C@H](CC(C)C)C(=O)N[C@H](CC(C)C)C(=O)N[C@H](CCCNC(=N)N)C(=O)N[C@H](CC(C)C)C(=O)N[C@H](CC(C)C)C(=O)N[C@H](CCCNC(=N)N)C(=O)N[C@H](CC(C)C)C(=O)N[C@H](CC(C)C)C(=O)N[C@H](CC(C)C)C(=O)N[C@H](CCCNC(=N)N)C(=O)N[C@H](CC(C)C)C(=O)N[C@H](CC(C)C)C(=O)N[C@H](Cc1c[nH]c2ccccc12)C(=O)NCC(=O)N[C@H](CCCNC(=N)N)C(=O)N[C@H](CCCNC(=N)N)C(N)=O` [D-AHR, rrgwlllrllrlllrllwgrr] (H-[dR][dR]G[dW][dL][dL][dL][dR][dL][dL][dR][dL][dL][dL][dR][dL][dL][dW]G[dR][dR]-NH2), in the series on HEK 293T/17 cells, the “cell viability, HEK 293T/17 cells” value is on record as “high cell viability”.
In the case of RRGWALRLVLAY-NH2 [*ARVA, RRGWALRLVLAY], the figures for the EC50 (in [1]; in [2]; with H3N2 influenza virus) were 6.2 µM, over 75 µM and 0.9 µM, respectively.
Take “RRRRRRRRRWC-NH2 [Arg9, RRRRRRRRRWC, reference compound]”: the EC50 in [1] is over 100 µM; in [2], over 75 µM; in the series with H3N2 influenza virus, 6.7 µM.
As to “RRWLLLLRLLLLWRR-NH2 [TL4dG, RRWLLLLRLLLLWRR]”, in the series on HEK 293T/17 cells, the “cytotoxicity against HEK cells” value is “less cytotoxic than TL3”.
As for “RRGWTLNLTLNYGRR-NH2 [*TNTN*, RRGWTLNLTLNYGRR]”, the concentration for a half-maximal effect (EC50) is 1.1 µM in [1], 22 µM in [2] and 6.1 µM in the series with H3N2 influenza virus.
With `CC(C)C[C@@H](NC(=O)[C@@H](Cc1c[nH]c2ccccc12)NC(=O)[C@@H](CCCNC(=N)N)NC(=O)[C@H](N)CCCNC(=N)N)C(=O)N[C@H](CC(C)C)C(=O)N[C@H](CC(C)C)C(=O)N[C@H](CC(C)C)C(=O)N[C@H](CC(N)=O)C(=O)N[C@H](CC(C)C)C(=O)N[C@H](CC(C)C)C(=O)N[C@H](CC(C)C)C(=O)N[C@H](CC(C)C)C(=O)N[C@H](Cc1c[nH]c2ccccc12)C(=O)N[C@H](CCCNC(=N)N)C(=O)N[C@H](CCCNC(=N)N)C(N)=O` [D-TL4NdG, rrwllllnllllwrr] (H-[dR][dR][dW][dL][dL][dL][dL][dN][dL][dL][dL][dL][dW][dR][dR]-NH2), the “cell viability, HEK 293T/17 cells” value in the series with HEK 293T/17 cells is on record as “high cell viability”.
For the molecule “RRGWALRLNLYYGRR-NH2 [*ARNY*, RRGWALRLNLYYGRR]”, the EC50 in [1] was 2.2 µM; in series [2], over 100 µM; in the series on H3N2 influenza virus, 4.5 µM. The “cell viability … of virus” value in the series on HEK cells [3] was “no difference”.
`CC(C)C[C@@H](NC(=O)[C@@H](Cc1c[nH]c2ccccc12)NC(=O)CNC(=O)[C@@H](CCCNC(=N)N)NC(=O)[C@H](N)CCCNC(=N)N)C(=O)N[C@H](CC(C)C)C(=O)N[C@H](CC(C)C)C(=O)N[C@H](CCCNC(=N)N)C(=O)N[C@H](CC(C)C)C(=O)N[C@H](CC(C)C)C(=O)N[C@H](CC(C)C)C(=O)N[C@H](Cc1c[nH]c2ccccc12)C(=O)NCC(=O)N[C@H](CCCNC(=N)N)C(=O)N[C@H](CCCNC(=N)N)C(N)=O` [D-TL3, rrgwlllrlllwgrr] (H-[dR][dR]G[dW][dL][dL][dL][dR][dL][dL][dL][dW]G[dR][dR]-NH2): the “cell viability, HEK 293T/17 cells” value in the series on HEK 293T/17 cells is “high cell viability”.
Take PLZYLRLLRGQF [TP2, reference compound]: the “activity against H3N2” value in the series with H3N2 influenza virus is “some antiviral activity”.
For RRGFSLKLLLSYRGWALLRLGYGRR-NH2 [IT1-a], the EC50 in series [1] was found to be 1.6 µM; in series [2] it was 19 µM; with H3N2 influenza virus it was 1.6 µM. Besides, the “cell viability … of virus” value in the series with HEK cells [3] is “varies in the presence and absence of virus”.
Take WVLVLRLGY-NH2 [VVRG, WVLVLRLGY]: a half-maximal effect with H3N2 influenza virus (EC50) was put at 6.1 µM.
Regarding “RRGWGLRLVLYYGRR-NH2 [*GRVY*, RRGWGLRLVLYYGRR]”, the EC50 in series [1] is 2.1 µM; with H3N2 influenza virus, 9.1 µM.
As to RRGFSLKLALLKDGWLLLLRLGYGRR-NH2 [IT1-f], the EC50 in series [1] amounted to 1.1 µM; in series [2], 20 µM; in the series with H3N2 influenza virus it was 1.5 µM.
“RRGWRLNLNLYYGRR-NH2 [*RNNY*, RRGWRLNLNLYYGRR]”: the EC50 turned out to be 2.1 µM in [1], 19 µM in series [2] and 2.3 µM in the series on H3N2 influenza virus.
Turning to RRGFSLKLALLYRGWLLLLRLGYGRR-NH2 [IT1-c], the EC50 in the series with H3N2 influenza virus worked out at 1.2 µM.
Turning to KDGWLLLRLGYGRR [Cterm-Cat], in [1], the “antiviral activity against LASVpv” value was “next most active peptide”.
On to “GIGAVLKGLATGLPAGISWIKQQAQL-NH2 [MelN4, reference compound]”, for which the half-maximal effective concentration (EC50) in [1] and in [2] was over 100 µM in each case.
For RRGFSLKLALLKDGWLLLRLGYGRR-NH2 [IT1-b], the EC50 in series [1] is 1.4 µM; in series [2], over 75 µM; in the series with H3N2 influenza virus, 2.3 µM; in the series with dengue virus type 2 it was 0.225 µM. For the same molecule, the “cell viability … of virus” value in the series with HEK cells [3] was “varies in the presence and absence of virus”. Also, in the series with HEK cells [4], the “effect of cell density on cytotoxicity” value is “remained consistent as cell density increases”. Also, the “effect of serum concentration on cytotoxicity” value in the series on HEK cells [5] (0-50% FBS) is “far less cytotoxic as serum concentration increases”. Further, in the series with Vero E6 cells, the “cell viability, Vero E6 cells” value is reported as “High cell viability”.
Consider WALRLYLGVY-NH2 [ARYV, WALRLYLGVY], for which the EC50 worked out at 7.9 µM in series [1] and 3.7 µM with H3N2 influenza virus.
Take “RRGWLLLRLLLWGRR-NH2 [TL3, RRGWLLLRLLLWGRR]”: in the series with HEK cells [4], the “effect of cell density on cytotoxicity” value was “increases as cell density increases”. In the series with HEK cells [5], the “cytotoxicity in 0% FBS” value is given as “does display cytotoxicity”; the “cytotoxicity in 10%, 25%, and 50% FBS” value is “completely noncytotoxic”. Moreover, the “cell viability, Vero E6 cells” value in the series on Vero E6 cells is reported as “High cell viability”.
Turning to `CC[C@H](C)[C@H](NC(=O)CN)C(=O)NCC(=O)N[C@@H](C)C(=O)N[C@H](C(=O)N[C@@H](CC(C)C)C(=O)N[C@@H](CCCCN)C(=O)N[C@H](C(=O)N[C@@H](CC(C)C)C(=O)N[C@H](C(=O)N[C@H](C(=O)NCC(=O)N[C@@H](CC(C)C)C(=O)N1CCC[C@H]1C(=O)N[C@@H](C)C(=O)NCC(=O)N[C@H](C(=O)N[C@@H](CO)C(=O)N[C@@H](Cc1c[nH]c2ccccc12)C(=O)N[C@H](C(=O)N[C@@H](CCCCN)C(=O)N[C@@H](CCCNC(=N)N)C(=O)N[C@@H](CCCCN)C(=O)N[C@@H](CCCNC(=N)N)C(=O)N[C@@H](CCC(N)=O)C(=O)N[C@@H](CCC(N)=O)C(N)=O)[C@@H](C)CC)[C@@H](C)CC)[C@@H](C)O)[C@@H](C)O)C(C)C)C(C)C` [Mel-L16G, reference compound], the EC50 came to 28 µM in series [1] and 21 µM in [2].
For “RRGWLLLLNLLLLWGRR-NH2 [TL4N, RRGWLLLLNLLLLWGRR]”, the “CC50 compared to IT1b” value with HEK 293T/17 cells (% greater than that of IT1b, HEK cells) was “over 500%”. Further, the “cytotoxicity against HEK cells” value in the series with HEK 293T/17 cells was “much less cytotoxic than TL3”.
